Experimental data: patent US8404718B2, “Combinations of pyrazole kinase inhibitors” (Astex Therapeutics Limited, priority 2005, dated 2013)
Counter-ions that a name gives are not always drawn. Each block holds one compound with its values, some of them ahead of it.

How the values were obtained:
symptomatic CLL patients = details: initial therapy; cited from earlier work
PKC = details: data published in 2002; cited from earlier work
OVCAR-3 tumour cells = details: concentrations of 50 and 100 microM; cited from earlier work
PKA = details: data published in 2002; cited from earlier work
PKG = details: data published in 2002; cited from earlier work
[1] = Stability and hygroscopicity of the salt; type: physicochemical
From the text: The term ‘stable’ or ‘stability’ as used herein includes chemical stability and solid state (physical) stability. The term ‘chemical stability’ means that the compound can be stored in an isolated form, or in the form of a formulation in which it is provided in admixture with for example, pharmaceutically acceptable carriers, diluents or adjuvants as described herein, under normal storage conditions, with little or no chemical degradation or decomposition. ‘Solid-state stability’ means the compound can be stored in an isolated solid form, or the form of a solid formulation in which it is provided in admixture with, for example, pharmaceutically acceptable carriers, diluents or adjuvants as described herein, under normal storage conditions, with little or no solid-state transformation (e.g. hydration, dehydration, solvatisation, desolvatisation, crystallisation, recrystallisation or solid-state phase transition).

Solubility of the salt = type: physicochemical
CDK5/p35 = CDK5/p35 (Homo sapiens, UniProt Q00535); assay: CDK selectivity assay, CDK5/p35; type: biochemical
From the text: (specific activity approx 500 cpm/pmol, concentration as required).

[2] = system: human colon carcinoma cell line HCT 116; assay: Anti-proliferative activity, Alamar Blue assay; type: cell-based; details: 72 hours compound incubation, read-out: IC50, inhibition of cell growth, HCT 116
In short: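 Cells were allowed to recover for 16 h, then exposed to compounds or combinations for 72 h. Viability was measured by resazurin reduction after 6 h with 10% (v/v) Alamar Blue, read at 535 nm ex/590 […] em. In the non-proliferating format, cells were held at confluence for 96 h before the 72 h treatment.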

[3] = clinical studies; cited from earlier work

CDK5/p35, sequence (Q00535 whole entry, species assumed): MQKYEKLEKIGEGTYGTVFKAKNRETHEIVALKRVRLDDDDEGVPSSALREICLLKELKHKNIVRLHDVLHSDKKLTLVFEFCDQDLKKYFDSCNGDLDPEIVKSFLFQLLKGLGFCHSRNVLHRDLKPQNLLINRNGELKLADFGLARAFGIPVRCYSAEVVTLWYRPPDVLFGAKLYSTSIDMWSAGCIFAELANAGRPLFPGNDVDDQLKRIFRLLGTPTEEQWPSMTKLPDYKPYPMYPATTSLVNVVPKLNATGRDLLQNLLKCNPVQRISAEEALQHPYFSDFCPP
CDK5/p35, sequence (Q15078 whole entry partner, species assumed): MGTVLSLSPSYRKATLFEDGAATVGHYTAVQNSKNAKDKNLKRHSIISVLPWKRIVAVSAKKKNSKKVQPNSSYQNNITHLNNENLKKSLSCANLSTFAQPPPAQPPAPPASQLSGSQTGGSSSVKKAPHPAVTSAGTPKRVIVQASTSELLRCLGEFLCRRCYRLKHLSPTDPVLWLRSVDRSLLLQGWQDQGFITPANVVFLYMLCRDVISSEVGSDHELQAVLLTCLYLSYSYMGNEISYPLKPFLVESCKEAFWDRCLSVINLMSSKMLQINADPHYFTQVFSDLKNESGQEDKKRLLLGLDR

Structure (SMILES): Nc1nc(F)nc2c1ncn2[C@@H]1O[C@H](CO)[C@@H](O)[C@@H]1O [fludarabine]
- Duration of progression-free survival (symptomatic CLL patients): 33 months
- Rate of complete responses (symptomatic CLL patients): 27%

Structure (SMILES): O=S(=O)(NCCNCC=C(c1ccccc1)c1ccccc1)c1cccc2cnccc12 [NL-71-101]
- IC50 (PKC): 104 µM
- Apoptosis in OVCAR-3 tumour cells (OVCAR-3 tumour cells): induced apoptosis
- IC50 (PKA): 9 µM
- IC50 (PKG): 36 µM

Structure (SMILES): CS(=O)(=O)O.O=C(NC1CCNCC1)c1n[nH]cc1NC(=O)c1c(Cl)cccc1Cl [methanesulphonate salt, 4-(2,6-dichlorobenzoylamino)-1H-pyrazole-3-carboxylic acid piperidin-4-ylamide methanesulphonate]
- Hygroscopicity [1]: non-hygroscopicity
- Water solubility (Solubility of the salt): excellent

- IC50 (CDK5/p35): < 20 µM
- IC50 [2]: < 20 µM
Structure (SMILES): O=C(Nc1ccc(F)cc1)c1n[nH]cc1NC(=O)c1c(F)cccc1F [Example 41, 4-(2,6-Difluoro-benzoylamino)-1H-pyrazole-3-carboxylic acid (4-fluoro-phenyl)-amide]

Structure (SMILES): O=C(NC1CCNCC1)c1n[nH]cc1NC(=O)c1c(Cl)cccc1Cl [methanesulphonic acid salt, 4-(2,6-dichloro-benzoylamino)-1H-pyrazole-3-carboxylic acid piperidin-4-ylamide]
- solubility (Solubility of the salt; pH 4.6, aqueous buffer, acetic acid/sodium acetate buffer, solution pH approximately 4.6): ~35 mg/mL

Structure (SMILES): CCCCCCCCCCCCCCCCCCOP(=O)([O-])OC1CC[N+](C)(C)CC1 [KRX-0401, Perifosine]
- Half-life [3]: ~100 h
